According to patent publication US7635706B2, “5HT4-antagonistic 4-(aminomethyl)-piperidine benzamides” (Janssen Pharmaceutica NV, priority 2003, dated 2009):

molecular target: T1, h5-HT4b (Homo sapiens, UniProt Q13639); assay: 5HT4 antagonism: [3H]GR113808 binding to membranes of h5-HT4b-HEK 293 clone 9 cells; settings: [3H]GR113808 0.1 nM, h5-HT4b-HEK 293 membranes, 30 min at 25° C.
T1 construct: expressed in transfected cells; host or cells: HEK 293 (clone 9), membrane preparation
Protocol: h5-HT4b-HEK 293 clone 9 cells were cultured in 150 mm Petri dishes and washed twice with cold PBS. The cells were then scraped from the plates and suspended in 50 mM Tris-HCl buffer, pH 7.4 and harvested by centrifugation at 23,500 rpm for 10 minutes. The pellet was resuspended in 5 mM Tris-HCl, pH 7.4 and homogenized with an Ultra Turrax homogenizer. The membranes were collected by centrifugation at 30,000 rpm for 20 min, resuspended in 50 mM Tris-HCl pH 7.4 and stored at −80° C. For the experiment, assay mixtures (0.5 ml) contained 50 μl of the tritiated ligand (5-HT4 antagonist [^3H]GR113808 0.1 nM) and 0.4 ml membrane preparation (15 μg protein/ml). 50 μl of 10% DMSO was added for total binding. 50 μl of 1 μM of (+)-trans-(1-butyl-3-hydroxy4-piperidinyl)methyl 8-amino-7-chloro-2,3-dihydro-1,4-benzodioxin-5-carboxylate (a proprietary 5HT4 agonist of Janssen Pharmaceutica) was added for determination of non-specific binding.
The [^3H]GR113808 assay buffer was 50 mM HEPES-NaOH, pH 7.4. The mixtures were incubated for 30 min at 25° C. The incubation was terminated by filtration over a Unifilter 96 GF/B presoaked in 0.1% polyethylenimine, followed by six washing steps with 50 mM HEPES-NaOH, pH 7.4.

T1 sequence (Q13639 whole entry): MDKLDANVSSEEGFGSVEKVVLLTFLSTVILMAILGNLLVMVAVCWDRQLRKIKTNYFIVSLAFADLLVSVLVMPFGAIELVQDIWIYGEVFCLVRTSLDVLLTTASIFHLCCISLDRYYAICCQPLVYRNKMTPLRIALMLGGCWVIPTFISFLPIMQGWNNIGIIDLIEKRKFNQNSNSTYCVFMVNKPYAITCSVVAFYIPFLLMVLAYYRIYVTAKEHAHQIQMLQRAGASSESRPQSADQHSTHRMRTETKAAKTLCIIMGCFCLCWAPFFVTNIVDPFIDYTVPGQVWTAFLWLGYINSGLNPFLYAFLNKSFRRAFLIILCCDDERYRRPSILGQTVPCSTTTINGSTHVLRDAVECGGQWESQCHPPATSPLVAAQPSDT

Structure (SMILES) | IC50 [nM]
COc1ccc(C(=O)NC[C@@H]2CCN(CCCCC(N)=O)C[C@H]2O)c2c1OCCCO2 [compound 122] | 4.07
COc1ccc(C(=O)NC[C@@H]2CCN(CCCC(N)=O)C[C@H]2O)c2c1OCCO2 [compound 139] | 5.89
Cc1ccc(C(=O)NC[C@@H]2CCN(CCCC#N)C[C@H]2O)c2c1OCCCO2 [compound 94] | 1.86
CCCCN1CC[C@@H](CNC(=O)c2cc(Cl)c(OC)c3c2OCCCO3)[C@H](O)C1 [compound 17] | 3.8
COc1c(Cl)cc(C(=O)NC[C@@H]2CCN(CCn3ccn(C(C)C)c3=O)C[C@H]2OC)c2c1OCCCO2 [compound 79] | 229
Cc1ccc(C(=O)NC[C@@H]2CCN(CC3CCCO3)C[C@H]2O)c2c1OCCCO2 (some centres unmarked) [compound 95] | 1.02
COCCCCN1CCC(O)(CNC(=O)c2ccc(OC)c3c2OCCCO3)CC1 [compound 135] | 182
CNCCCCN1CC[C@@H](CNC(=O)c2cc(Cl)c(Cl)c3c2OCCCO3)[C@H](OC)C1 [compound 86] | 0.912
Cc1ccc(C(=O)NC[C@@H]2CCN(CCCNS(C)(=O)=O)C[C@H]2O)c2c1OCCCO2 [compound 96] | 0.977
O=C(NC[C@@H]1CCN(CC2OCCO2)C[C@H]1O)c1cc(Cl)c(Br)c2c1OCCCO2 [compound 26] | 6.31
CNCCCN1CC[C@@H](CNC(=O)c2cc(Cl)c(Cl)c3c2OCCCO3)[C@H](OC)C1 [compound 74] | 5.37
CO[C@@H]1CNCC[C@H]1CNC(=O)c1cc(Cl)c(Cl)c2c1OCCCO2 [compound 49] | 8.13
COc1c(Cl)cc(C(=O)NC[C@@H]2CCN(CC3CCCO3)C[C@H]2O)c2c1OCCO2 (some centres unmarked) [compound 32] | 8.71
COc1c(Cl)cc(C(=O)NC[C@@H]2CCN(CCCC#N)C[C@H]2OC)c2c1OCCCO2 [compound 69] | 79.4
COc1c(Cl)cc(C(=O)NC[C@@H]2CCN(CC3CCCO3)C[C@H]2O)c2c1OCCCO2 (some centres unmarked) [compound 33] | 1.2
CNCCCN1CC[C@@H](CNC(=O)c2cc(Cl)c(Br)c3c2OCCCO3)[C@H](O)C1 [compound 80] | 6.31
COc1ccc(C(=O)NCC2(O)CCN(CCCC#N)CC2)c2c1OCCCO2 [compound 133] | 11.2
O=C(NC[C@@H]1CCN(CC2CCCO2)C[C@H]1O)c1cc(Cl)c(Br)c2c1OCCCO2 (some centres unmarked) [compound 39] | 3.89
CO[C@@H]1CNCC[C@H]1CNC(=O)c1cc(Cl)c(Br)c2c1OCCCO2 [compound 35] | 23.4
COc1c(Cl)cc(C(=O)NC[C@@H]2CCNC[C@H]2O)c2c1OCCO2 [compound 8] | 77.6
COc1ccc(C(=O)NC[C@@H]2CCN(CCCO)C[C@H]2O)c2c1OCCCO2 [compound 113] | 3.24
Cc1ccc(C(=O)NC[C@@H]2CCN(CCOc3ccc(S(N)(=O)=O)cc3)C[C@H]2O)c2c1OCCCO2 [compound 108] | 1.78
CCCCN1CC[C@@H](CNC(=O)c2ccc(OC)c3c2OCCCO3)[C@H](O)C1 [compound 100] | 0.331
COc1ccc(C(=O)NC[C@@H]2CCN(CCCO)C[C@H]2O)c2c1OCCO2 [compound 116] | 5.25

Structure (SMILES) | IC50 [nM]
COc1c(Cl)cc(C(=O)NC[C@@H]2CCN(CCOCCO)C[C@H]2OC)c2c1OCCCO2 [compound 68] | 93.3
CCCCN1CC[C@@H](CNC(=O)c2ccc(OC)c3c2OCCO3)[C@H](O)C1 [compound 114] | 2.63
COCCCCN1CC[C@H](CNC(=O)c2ccc(OC)c3c2OCCCO3)[C@H](O)C1 [compound 142] | 162
COCCCN1CC[C@@H](CNC(=O)c2cc(Cl)c(OC)c3c2OCCO3)[C@H](O)C1 [compound 6] | 6.46
COc1c(Cl)cc(C(=O)NC[C@@H]2CCN(CC3OCCO3)C[C@H]2O)c2c1OCCCO2 [compound 18] | 24
CNCCCCN1CC[C@@H](CNC(=O)c2cc(Cl)c(OC)c3c2OCCCO3)[C@H](OC)C1 [compound 61] | 85.1
COc1ccc(C(=O)NC[C@@H]2CCN(CCCS(C)(=O)=O)C[C@H]2O)c2c1OCCCO2 [compound 126] | 7.94
COc1c(Cl)cc(C(=O)NC[C@@H]2CCN(CCn3ccn(C(C)C)c3=O)C[C@H]2O)c2c1OCCO2 [compound 60] | 35.5
COc1c(Cl)cc(C(=O)NC[C@@H]2CCN(CCCO)C[C@H]2OC)c2c1OCCCO2 [compound 57] | 36.3
COc1ccc(C(=O)NC[C@@H]2CCN(CCCC#N)C[C@H]2OC)c2c1OCCCO2 [compound 112] | 72.4
CO[C@@H]1CN(CCC2OCCO2)CC[C@H]1CNC(=O)c1cc(Cl)c(Br)c2c1OCCCO2 [compound 46] | 6.03
COc1c(Cl)cc(C(=O)NC[C@@H]2CCN(CCC3OCCO3)C[C@H]2O)c2c1OCCO2 [compound 31] | 7.08
CNCCCCN1CC[C@@H](CNC(=O)c2cc(Cl)c(Br)c3c2OCCCO3)[C@H](O)C1 [compound 64] | 1.55
COc1ccc(C(=O)NC[C@@H]2CCN(CC3CCCO3)C[C@H]2O)c2c1OCCCO2 (some centres unmarked) [compound 103] | 8.71
CCCCN1CC[C@@H](CNC(=O)c2cc(Cl)c(Br)c3c2OCCCO3)[C@H](OC)C1 [compound 58] | 2.34
Cc1ccc(C(=O)NC[C@@H]2CCN(CCCCOc3ccc(S(N)(=O)=O)cc3)C[C@H]2O)c2c1OCCCO2 [compound 106] | 0.813
COCCCN1CC[C@@H](CNC(=O)c2cc(Cl)c(OC)c3c2OCCO3)[C@H](OC)C1 [compound 76] | 21.9
CNCCN1CC[C@@H](CNC(=O)c2cc(Cl)c(OC)c3c2OCCO3)[C@H](OC)C1 [compound 92] | 490
CNCCCN1CC[C@@H](CNC(=O)c2cc(Cl)c(OC)c3c2OCCCO3)[C@H](O)C1 [compound 36] | 38
COc1c(Cl)cc(C(=O)NC[C@@H]2CCN(CCCC#N)C[C@H]2O)c2c1OCCCO2 [compound 34] | 1
COc1c(Cl)cc(C(=O)NC[C@@H]2CCN(CCC3OCCO3)C[C@H]2O)c2c1OCCCO2 [compound 29] | 6.46
O=C(NC[C@@H]1CCN(CCC2OCCO2)C[C@H]1O)c1cc(Cl)c(Br)c2c1OCCCO2 [compound 27] | 4.9
COc1c(Cl)cc(C(=O)NC[C@@H]2CCN(CCOCCO)C[C@H]2OC)c2c1OCCO2 [compound 55] | 166
COc1ccc(C(=O)NC[C@@H]2CCN(CCCO)C[C@H]2OC)c2c1OCCO2 [compound 119] | 20.4

Structure (SMILES) | IC50 [nM]
CCCCN1CC[C@@H](CNC(=O)c2cc(Cl)c(OC)c3c2OCCCO3)[C@H](OC)C1 [compound 71] | 10.7
COCCCCN1CC[C@@H](CNC(=O)c2ccc(OC)c3c2OCCCO3)[C@H](O)C1 [compound 129] | 3.39
CNCCCN1CC[C@@H](CNC(=O)c2cc(Cl)c(Br)c3c2OCCCO3)[C@H](OC)C1 [compound 63] | 9.77
CNCCCN1CC[C@@H](CNC(=O)c2cc(Cl)c(OC)c3c2OCCO3)[C@H](OC)C1 [compound 78] | 174
CNCCN1CC[C@@H](CNC(=O)c2cc(Cl)c(OC)c3c2OCCO3)[C@H](O)C1 [compound 83] | 64.6
CNCCCCN1CC[C@@H](CNC(=O)c2cc(Cl)c(OC)c3c2OCCCO3)[C@H](O)C1 [compound 40] | 14.1
CCOc1ccc(C(=O)NC[C@@H]2CCN(CCCC(N)=O)C[C@H]2O)c2c1OCCCO2 [compound 146] | 5.89
COc1c(Cl)cc(C(=O)NC[C@@H]2CCN(CC3CCCO3)C[C@H]2OC)c2c1OCCCO2 (some centres unmarked) [compound 73] | 18.2
CNCCCN1CC[C@@H](CNC(=O)c2cc(Cl)c(Cl)c3c2OCCCO3)[C@H](O)C1 [compound 85] | 2.69
CO[C@@H]1CN(CCn2ccn(C(C)C)c2=O)CC[C@H]1CNC(=O)c1cc(Cl)c(Cl)c2c1OCCCO2 [compound 82] | 8.32
COCCCN1CC[C@@H](CNC(=O)c2cc(Cl)c(Br)c3c2OCCCO3)[C@H](O)C1 [compound 38] | 2.95
COCCCN1CC[C@@H](CNC(=O)c2ccc(OC)c3c2OCCCO3)[C@H](O)C1 [compound 98] | 2.63
CO[C@@H]1CN(CCCO)CC[C@H]1CNC(=O)c1cc(Cl)c(Br)c2c1OCCCO2 [compound 45] | 7.41
CCCCN1CC[C@@H](CNC(=O)c2ccc(OC)c3c2OCCCO3)[C@H](OC)C1 [compound 123] | 11
COc1ccc(C(=O)NC[C@H]2CCN(CCCC#N)C[C@H]2O)c2c1OCCCO2 [compound 137] | 155
CCN1CC[C@@H](CNC(=O)c2ccc(OC)c3c2OCCCO3)[C@H](OC)C1 [compound 120] | 28.2
CCCCN1CC[C@@H](CNC(=O)c2ccc(F)c3c2OCCCO3)[C@H](O)C1 [compound 131] | 1
CNCCCCN1CC[C@@H](CNC(=O)c2cc(Cl)c(Cl)c3c2OCCCO3)[C@H](O)C1 [compound 90] | 2.04
CCN1CC[C@@H](CNC(=O)c2ccc(C)c3c2OCCCO3)[C@H](O)C1 [compound 111] | 0.871
COc1c(Cl)cc(C(=O)NC[C@@H]2CCNC[C@H]2OC)c2c1OCCO2 [compound 52] | 457
COc1ccc(C(=O)NC[C@@H]2CCN(CCCC(N)=O)C[C@H]2O)c2c1OCCCO2 [compound 128] | 7.24
COc1c(Cl)cc(C(=O)NC[C@@H]2CCN(CCC3OCCO3)C[C@H]2OC)c2c1OCCCO2 [compound 72] | 21.4
CCCCN1CCC(O)(CNC(=O)c2ccc(OC)c3c2OCCCO3)CC1 [compound 136] | 91.2
